Assay results published in patent US20210323929A1, “Purified Detomidine, Process of Preparing and Methods of Use” (Clexio Biosciences Ltd., priority 2018, published 2021).
Read-outs that look alike come from different tables or passages of the source.

Assays:
Format in all cases: physicochemical
[1] = Hydration study by DVS analysis (hydration-dehydration cycles versus relative humidity)
Protocol: Melting points (m.p.) of the intermediate detomidine free base and hydrochloride of Sample 5 measured in open capillary corresponded with the published literature and the DSC data and are presented in Table 5. In order to evaluate effect of humidity on different forms of detomidine, a hydration study was performed. Samples of detomidine free base and hydrochloride salt were subjected to DVS analysis. These observations are in accordance with the DVS results shown in FIGS. 5 and 6, for detomidine free base and detomidine HCl, respectively.
During the dehydration cycle, the monohydrate began to lose water at RH˜10% and converted into the anhydrate at RH=0%.
At the same time, the anhydrous form is not stable in atmospheric air and absorbs water at RH=30-50%.

[2] = Solid form stability of the vacuum dried anhydrate, hermetically closed or exposed to atmospheric air
Protocol: The same monohydrate dried at elevated temperature (30-40 mbar 90° C.) converted completely into the anhydrous form.

[3] = Re-slurry in water: conversion of the solid form without complete dissolution; details: contact with water for 24 hrs, re-slurry at 24° C.
[4] = Solubility in water (observation on the solid forms)

Structure (SMILES): Cc1cccc(Cc2c[nH]cn2)c1C [Sample 2]
- water level after absorption, cKF ([1]; anhydrous detomidine HCl after hydration): 7.7%

Structure (SMILES): Cc1cccc(Cc2c[nH]cn2)c1C [anhydrous form]
- water uptake and form conversion after exposure to atmospheric air ([2]; after exposure to atmospheric air): absorbed water and converted to a mixture of anhydrate and monohydrate
- water uptake and form conversion, hermetically closed ([2]; vacuum dried, hermetically closed): did not absorb water from the atmosphere and did not convert into the monohydrate
- stability in atmospheric air ([1]; atmospheric air): not stable
- RH at which the anhydrate absorbs water / transforms completely into the monohydrate ([1]; hydration cycle): 30-50%
- RH at which the anhydrate did not absorb water ([1]; hydration cycle): < 30%
- form conversion on contact with water [3]: completely converted

Structure (SMILES): Cc1cccc(Cc2c[nH]cn2)c1C [detomidine free base, 4-[(2,3-dimethylphenyl)methyl]-1H-imidazole]
- hygroscopicity ([1]; DVS, 24.4° C. (FIG. 5)): non-hygroscopic
- water absorbed ([1]; at relative humidity (RH)>50%): more than 1%
- solubility in water [4]: insoluble in water

Structure (SMILES): Cc1cccc(Cc2c[nH]cn2)c1C.Cl [detomidine hydrochloride]
- reproducibility of anhydrate-monohydrate interconversion ([1]; four cycles of hydration-dehydration): good reproducibility
- solubility in water ([4]; water, hydrochloride formed with aqueous HCl): soluble

Structure (SMILES): Cc1cccc(Cc2c[nH]cn2)c1C [monohydrate]
- absorption of additional water on increase of humidity ([1]; RH 70% to RH>90%): did not lead to absorption of additional water
- RH at which the monohydrate began to lose water ([1]; dehydration cycle): ~10%
- RH at which the monohydrate converted into the anhydrate ([1]; dehydration cycle): 0%
